From patent US10519148B2, “Acrylic acid derivative, preparation method and use in medicine thereof” (Zhejiang Hisun Pharmaceutical Co., Ltd., priority 2015, dated 2019)

Tested on: MCF-7 carcinoma xenografts
Test: Tumor growth inhibition in SCID mice bearing MCF-7 carcinoma xenografts
Type: in vivo
Settings: for TGI (%) Day 4: Day 4, MCF-7 tumor bearing SCID mice; for TGI (%) Day 7: Day 7, MCF-7 tumor bearing SCID mice; for TGI (%) Day 11: Day 11, MCF-7 tumor bearing SCID mice; for TGI (%) Day 14: Day 14, MCF-7 tumor bearing SCID mice; for TGI (%) Day 18: Day 18, MCF-7 tumor bearing SCID mice; for TGI (%) Day 21: Day 21, MCF-7 tumor bearing SCID mice; for effect on tumor growth inhibition in human breast cancer MCF-7 bearing mice (in words): doses of 30 mg/kg and 50 mg/kg, within 21 days
Protocol: 1. Purpose of the Experiment
This test was used to evaluate the inhibitory effect of the test compounds, which were orally administered daily for 21 days, on the growth of transplanted tumor in MCF-7 tumor-bearing SCID mice.
2. Preparation of the Test Substance
Solvent: 20% PEG400, 80% deionized water;
Preparation of the test compounds: an appropriate amount of the test compounds were weighed, dissolved in PEG400 (20%), and then 80% amount of the sterilized deionized water was added, shocked evenly. The test compounds were freshly prepared daily before administration.
Varieties and strains: SCID mice, SPF, female, 7 to 9 weeks old (16 to 22 grams), 100 mice, purchased from Beijing Huafu kang Biotechnology Co., Ltd., 100 mice with good health were used for the experiment, with the environment adaption time of 5 to 7 days.
4. MCF-7 Tumor Cell Culture
MCF-7 cells were cultured in RPMI1640 medium containing 10% fetal bovine serum, cultured in 37° C., 5% CO2 incubator. Cells in logarithmic phase were taken before inoculating, digested with 0.25% trypsin, and then the cells were washed with PBS, resuspended in medium without serum and counted. The cell concentration was adjusted to 7.5×10^7 cells/mL (1:1 Matrigel, Extracellular Matrix Proteins, 356234, BD).
5. Animal Inoculation and Grouping
Each mouse was inoculated subcutaneously in the right axilla with 0.2 mL cell suspension (1.5×10^7 cells/mouse) under aseptic conditions. Estrogen was administrated subcutaneously after inoculation. When the tumor grows to volume of about 150-250 mm^3, the mice with similar tumor volume and good tumor shape were selected (shape to be a single spherical as much as possible, no irregular shape or multiple tumors together), 10 mice per group.
6. Animal Administration and Observation
The formation of tumor in the inoculated part of each group of animals was observed. The long diameter (Y) and the short diameter (X) of the tumor nodules were measured with a vernier caliper twice a week and calculated according to the following formula: The volume of tumor nodules (V): V=(X^2Y)/2.
Evaluation index of antitumor activity: tumor growth inhibition rate TGI (%), relative tumor proliferation rate T/C (%). • Tumor growth inhibition rate TGI (%): TGI (%)=(Vc−Vt)/Vc×100. Where Vc is the tumor volume of the model control group and Vt is the tumor volume of the compound group.
Relative tumor volume (RTV): RTV=Vn/V0. Where V0 is the tumor volume just before the first time administered, and Vn is the tumor volume at the time of measurement.
Relative tumor proliferation rate: T/C (%): T/C (%)=TRTV/CRTV×100. Where, TRTV was RTV of the treatment group and CRTV was RTV of negative control group.

## C[C@@H]1Cc2c([nH]c3ccccc23)[C@@H](c2c(F)cc(/C=C/C(=O)O)cc2F)N1CC1(F)CC1 [Example 1, (E)-3-(3,5-difluoro-4-((1R,3R)-2-((1-fluorocyclopropyl)methyl)-3-methyl-2,3,4,9-tetrahydro-1H-pyrido[3,4-b]indol-1-yl)phenyl)acrylic acid]
30 mg/kg po qd
  TGI (%) Day 4: 12.3%
  TGI (%) Day 7: 24.4%
  TGI (%) Day 11: 34.5%
  TGI (%) Day 14: 52.7%
  TGI (%) Day 18: 65.7%
  TGI (%) Day 21: 76.7%
50 mg/kg po qd
  TGI (%) Day 4: 16.9%
  TGI (%) Day 7: 26.5%
  TGI (%) Day 11: 38.8%
  TGI (%) Day 14: 54.2%
  TGI (%) Day 18: 66.9%
  TGI (%) Day 21: 78.8%
  effect on tumor growth inhibition in human breast cancer MCF-7 bearing mice (in words): significant effect on tumor growth inhibition

## C[C@@H]1Cc2c([nH]c3cccc(F)c23)[C@@H](c2c(F)cc(/C=C/C(=O)O)cc2F)N1CC1(F)CC1 [Example 12, (E)-3-(3,5-difluoro-4-((1R,3R)-5-fluoro-2-((1-fluorocyclopropyl)methyl)-3-methyl-2,3,4,9-tetrahydro-1H-pyrido[3,4-b]indol-1-yl)phenyl)acrylic acid]
30 mg/kg po qd
  TGI (%) Day 4: 12.1%
  TGI (%) Day 7: 25.9%
  TGI (%) Day 11: 41.5%
  TGI (%) Day 14: 53.6%
  TGI (%) Day 18: 62.0%
  TGI (%) Day 21: 73.4%
50 mg/kg po qd
  TGI (%) Day 4: 12.4%
  TGI (%) Day 7: 25.4%
  TGI (%) Day 11: 43.8%
  TGI (%) Day 14: 59.6%
  TGI (%) Day 18: 69.8%
  TGI (%) Day 21: 79.4%
  effect on tumor growth inhibition in human breast cancer MCF-7 bearing mice (in words): significant effect on tumor growth inhibition
